One experiment has as its target T1, CDK7 (Homo sapiens, UniProt P50613).
T1 construct: purchased Carna Biosciences, Inc. 04-108
The experiment can be described thus: CDK7 enzyme inhibition test. It is filed as biochemical. The following applies: Ki=IC50/(1+S/Km); 33P bound to MBP, [γ-33P]ATP, 30° C. for 20 minutes; read-out: Ki value of CDK7 inhibitory activity. As for the experimental part:
CDK7 Enzyme Inhibition Test
The preparation of a buffer solution was performed by mixing a N-2-hydroxyethylpiperazine-N′-2-ethanesulfonic acid buffer solution (HEPES buffer solution) (pH 7.4), dithiothreitol (DTT), Triton X-100, and magnesium chloride (MgCl2). A 500 μM [γ-^33P]ATP solution was used by diluting a 10 mM ATP solution and a commercially available [γ-^33P]ATP solution (manufactured by PerkinElmer, Inc., Code No. NEG-302H) with the buffer solution. A CDK7 solution was used by diluting commercially available CDK7 (manufactured by Carna Biosciences, Inc., Catalog No. 04-108) with the buffer solution. A substrate solution was used by diluting myelin basic protein (MBP) with the buffer solution. As for the preparation of a reaction solution, the buffer solution, the 500 μM [γ-^33P]ATP solution, the CDK7 solution, and the substrate solution were mixed at 4° C. to obtain a reaction solution.
CDK7 enzyme reaction was performed by adding 5 μL of a test compound solution prepared with 10% dimethyl sulfoxide (DMSO)/90% injectable distilled water, and 45 μL of the reaction solution to a 1.5 mL microtube at 4° C. and reacting in the microtube at 30° C. for 20 minutes in a water bath incubator. After the reaction, a 10% aqueous trichloroacetic acid (TCA) solution was added to each microtube while cooled to 4° C., and mixed to terminate the reaction. The resultant was left standing at 4° C. for 10 minutes and then centrifuged in a centrifuge, and the supernatant was discarded. Next, a 2% aqueous TCA solution was added, mixed, and then centrifuged in a centrifuge, and the supernatant was discarded. This washing operation was performed twice. After the washing, precipitates were dissolved in a 1 N aqueous sodium hydroxide (NaOH) solution, and the energy quantity (radioactivity) of the reaction product was measured with a liquid scintillation counter.
The calculation of the inhibitory activity of the test compound against CDK7 was performed as a test compound concentration inhibiting 50% of the amount of ^33P bound to MBP (IC50 value) by using EXSUS (version 8.0.0 or version 8.0.1, manufactured by CAC Exicare Corp.).
The calculation of a Ki value was performed according to the following calculation expression. S means the concentration of ATP contained in the reaction solution, and Km means a Michaelis-Menten constant. Ki=IC50/(1+S/Km)

The subject of experiment [1] is human large intestine cancer cell line (HCT-116). Put plainly: Human large intestine cancer (HCT-116) cell growth inhibition test. It is filed as cell-based. The following applies: 72 h, HCT-116, culture for 3 days, sulforhodamine B absorbance. Here is the method: Human Large Intestine Cancer (HCT-116) Cell Growth Inhibition Test
The measurement of a human large intestine cancer cell growth inhibitory effect was carried out by modifying the method of Simak et al. (Cancer Research, 69, 6208 (2009)).
A human large intestine cancer cell line (HCT-116) (manufactured by DS Pharma Biomedical Co., Ltd., Cat. No. EC91091005) was cultured in McCoy's 5a (manufactured by GIBCO/Thermo Fisher Scientific, Inc., REF. 16600-082) medium containing 10% FBS (manufactured by GIBCO/Thermo Fisher Scientific, Inc., REF. 10082-147) and 1% penicillin/streptomycin/amphotericin B (manufactured by GIBCO/Thermo Fisher Scientific, Inc., REF. 15240-096) and inoculated at 1.0×10^3 cells/well in a 96-well plate (manufactured by Corning Inc., REF. 353072). After overnight culture in a carbon dioxide incubator, it was replaced with a fresh McCoy's 5a medium containing 10% FBS on the next day, and a test compound dissolved in DMSO (manufactured by Wako Pure Chemical Industries, Ltd., Code No. 043-07216) (final DMSO concentration: 0.1%) was added and left standing in a carbon dioxide incubator. After culturing for 3 days, the absorbance of each well was measured by using In Vitro Toxicology Assay Kit Sulforhodamine B based (manufactured by Sigma-Aldrich Co. LLC., Pcode 1001910706).
The rate of inhibition of cell growth at each concentration was calculated from the test compound concentration and the absorbance of sulforhodamine B, and the concentration of the test compound necessary for inhibiting 50% of cell growth (IC50 value) was calculated by using EXSUS (version 8.0.0 or version 8.0.1, manufactured by CAC Exicare Corp.).

The structures appear in SMILES notation.

One may read the Ki as the equilibrium dissociation constant of an inhibitor or competing ligand from its target. One may read the IC50 as the midpoint of a concentration-inhibition curve. Higher therefore signals a need for much substance.

T1 sequence (P50613 whole entry): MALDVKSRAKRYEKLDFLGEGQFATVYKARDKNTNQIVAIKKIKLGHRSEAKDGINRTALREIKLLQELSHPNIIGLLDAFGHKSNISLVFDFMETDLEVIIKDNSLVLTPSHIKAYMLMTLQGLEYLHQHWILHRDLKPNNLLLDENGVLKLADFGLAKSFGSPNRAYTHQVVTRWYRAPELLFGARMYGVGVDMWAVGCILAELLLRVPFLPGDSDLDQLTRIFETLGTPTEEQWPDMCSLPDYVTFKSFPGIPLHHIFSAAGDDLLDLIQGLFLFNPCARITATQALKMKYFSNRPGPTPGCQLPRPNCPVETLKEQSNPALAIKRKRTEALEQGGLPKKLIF
T1 sequence (P51946 whole entry partner): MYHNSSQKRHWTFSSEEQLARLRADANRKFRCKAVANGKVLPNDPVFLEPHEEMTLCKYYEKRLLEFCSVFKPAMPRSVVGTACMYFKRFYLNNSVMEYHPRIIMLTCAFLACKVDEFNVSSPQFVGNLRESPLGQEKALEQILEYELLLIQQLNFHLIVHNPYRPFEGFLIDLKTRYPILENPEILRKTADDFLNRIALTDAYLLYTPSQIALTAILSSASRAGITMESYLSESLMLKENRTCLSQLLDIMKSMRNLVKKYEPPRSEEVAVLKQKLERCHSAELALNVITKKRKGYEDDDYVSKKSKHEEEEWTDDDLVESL
T1 sequence (P51948 whole entry partner): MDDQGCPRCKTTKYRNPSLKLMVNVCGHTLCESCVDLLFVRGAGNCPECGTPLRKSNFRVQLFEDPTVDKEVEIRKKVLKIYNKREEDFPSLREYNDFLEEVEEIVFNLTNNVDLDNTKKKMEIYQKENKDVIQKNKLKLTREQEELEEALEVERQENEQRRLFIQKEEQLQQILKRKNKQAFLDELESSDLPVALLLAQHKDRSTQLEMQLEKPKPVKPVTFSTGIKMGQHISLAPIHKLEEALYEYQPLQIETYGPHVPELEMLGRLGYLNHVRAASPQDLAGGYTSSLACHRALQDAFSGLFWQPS

In the case of `COCC(C(=O)N1Cc2c(NC(=O)C3([Si](C)(C)C)CCC3)n[nH]c2C1(C)C)c1ccccc1` (stereo not shown) [IV-634, N-[5-(3-Methoxy-2-phenylpropanoyl)-6,6-dimethyl-1,4,5,6-tetrahydropyrrolo[3,4-c]pyrazol-3-yl]-1-(trimethylsilyl)cyclobutanecarboxamide], the Ki on CDK7 is not above 50 nM. Moreover, the IC50 in experiment [1] was not above 500 nM.

Consider `CC1(C)c2[nH]nc(NC(=O)C3([Si](C)(C)C)CCC3)c2CN1C(=O)NC[C@H](O)c1ccccc1` [IV-786, (R)—N-(2-Hydroxy-2-phenylethyl)-6,6-dimethyl-3-[1-(trimethylsilyl)cyclobutanecarboxamido]-4,6-dihydropyrrolo[3,4-c]pyrazole-5(1H)-carboxamide], for which the Ki on CDK7 was not above 50 nM. The compound also registered an IC50 in experiment [1] not above 500 nM.

As for `CC1(C)c2[nH]nc(NC(=O)C3([Si](C)(C)C)CCC3)c2CN1C(=O)NC[C@@H](O)c1ccccc1` [IV-787, (S)—N-(2-Hydroxy-2-phenylethyl)-6,6-dimethyl-3-[1-(trimethylsilyl)cyclobutanecarboxamido]-4,6-dihydropyrrolo[3,4-c]pyrazole-5(1H)-carboxamide], at CDK7, the Ki was not above 50 nM. In experiment [1], this compound gave an IC50 not above 500 nM.

Regarding `CC(C)[C@@H](CC(C)(C)O)NC(=O)N1Cc2c(NC(=O)C3([Si](C)(C)C)CCC3)n[nH]c2C1(C)C` [IV-815, (R)—N-(5-Hydroxy-2,5-dimethylhexan-3-yl)-6,6-dimethyl-3-[1-(trimethylsilyl)cyclobutanecarboxamido]-4,6-dihydropyrrolo[3,4-c]pyrazole-5(1H)-carboxamide], the Ki on CDK7 is not above 50 nM. For the same compound, the IC50 in experiment [1] was not above 500 nM.

For `CC1(C)c2[nH]nc(NC(=O)C3([Si](C)(C)C)CCC3)c2CN1C(=O)N[C@H](CO)Cc1ccccc1` [IV-862, (S)—N-(1-Hydroxy-3-phenylpropan-2-yl)-6,6-dimethyl-3-[1-(trimethylsilyl)cyclobutanecarboxamido]-4,6-dihydropyrrolo[3,4-c]pyrazole-5(1H)-carboxamide], the Ki on CDK7 is not above 50 nM. Also, the IC50 in experiment [1] is not above 500 nM.

Consider `CC1(C)c2[nH]nc(NC(=O)C3([Si](C)(C)C)CCC3)c2CN1C(=O)N[C@H](CO)c1ccccc1Cl` [IV-959, (S)—N-[1-(2-Chlorophenyl)-2-hydroxyethyl]-6,6-dimethyl-3-[1-(trimethylsilyl)cyclobutanecarboxamido]-4,6-dihydropyrrolo[3,4-c]pyrazole-5(1H)-carboxamide], for which the Ki on CDK7 was not above 50 nM. Moreover, the IC50 in experiment [1] was not above 500 nM.

For the compound `Cc1ccccc1[C@@H](CO)NC(=O)N1Cc2c(NC(=O)C3([Si](C)(C)C)CCC3)n[nH]c2C1(C)C` [IV-1067, (S)—N-[2-Hydroxy-1-(o-tolyl)ethyl]-6,6-dimethyl-3-[1-(trimethylsilyl)cyclobutanecarboxamido]-4,6-dihydropyrrolo[3,4-c]pyrazole-5(1H)-carboxamide], on CDK7, the Ki was not above 50 nM. Further, the IC50 in experiment [1] is not above 500 nM.

For the compound `CO[C@H](C(=O)N1Cc2c(NC(=O)C3([Si](C)(C)C)CCC3)n[nH]c2C1(C)C)c1ccccc1` [IV-1176, (S)—N-[5-(2-Methoxy-2-phenylacetyl)-6,6-dimethyl-1,4,5,6-tetrahydropyrrolo[3,4-c]pyrazol-3-yl]-1-(trimethylsilyl)cyclobutanecarboxamide], the Ki at CDK7 is not above 50 nM. In addition, the IC50 in experiment [1] is not above 500 nM.

For `CC1(C)c2[nH]nc(NC(=O)C3([Si](C)(C)C)CCC3)c2CN1C(=O)[C@@H](CO)c1ccccc1` [IV-1215, (R)—N-[5-(3-Hydroxy-2-phenylpropanoyl)-6,6-dimethyl-1,4,5,6-tetrahydropyrrolo[3,4-c]pyrazol-3-yl]-1-(trimethylsilyl)cyclobutanecarboxamide], on CDK7, the Ki is not above 50 nM. The compound further had an IC50 in experiment [1] not above 500 nM.

Take `COC(C)C(=O)N1Cc2c(NC(=O)C3([Si](C)(C)C)CCC3)n[nH]c2C1(C)C` (stereo not shown) [IV-1241, N-[5-(2-Methoxypropanoyl)-6,6-dimethyl-1,4,5,6-tetrahydropyrrolo[3,4-c]pyrazol-3-yl]-1-(trimethylsilyl)cyclobutanecarboxamide]: at CDK7, the Ki was not above 50 nM. This compound registered an IC50 in experiment [1] not above 500 nM.

Regarding `CC(Oc1cccnc1)C(=O)N1Cc2c(NC(=O)C3([Si](C)(C)C)CCC3)n[nH]c2C1(C)C` (stereo not shown) [IV-1274, N-{6,6-Dimethyl-5-[2-(pyridin-3-yloxy)propanoyl]-1,4,5,6-tetrahydropyrrolo[3,4-c]pyrazol-3-yl}-1-(trimethylsilyl)cyclobutanecarboxamide], the Ki at CDK7 is not above 50 nM. Besides, in experiment [1], the IC50 was not above 500 nM.

Consider `CC1(C)c2[nH]nc(NC(=O)C3([Si](C)(C)C)CCC3)c2CN1C(=O)C(CO)Oc1ccccc1` (stereo not shown) [IV-1330, N-[5-(3-Hydroxy-2-phenoxypropanoyl)-6,6-dimethyl-1,4,5,6-tetrahydropyrrolo[3,4-c]pyrazol-3-yl]-1-(trimethylsilyl)cyclobutanecarboxamide], for which the Ki on CDK7 is not above 50 nM. Moreover, the IC50 in experiment [1] is not above 500 nM.

Turning to `COCC(Oc1ccccc1)C(=O)N1Cc2c(NC(=O)C3([Si](C)(C)C)CCC3)n[nH]c2C1(C)C` (stereo not shown) [IV-1348, N-[5-(3-Methoxy-2-phenoxypropanoyl)-6,6-dimethyl-1,4,5,6-tetrahydropyrrolo[3,4-c]pyrazol-3-yl]-1-(trimethylsilyl)cyclobutanecarboxamide], on CDK7, the Ki was not above 50 nM. For the same compound, the IC50 in experiment [1] is not above 500 nM.

Regarding `COC(C(=O)N1Cc2c(NC(=O)C3([Si](C)(C)C)CCC3)n[nH]c2C1(C)C)c1ccc(F)cc1` (stereo not shown) [IV-1427, N-{5-[2-(4-Fluorophenyl)-2-methoxyacetyl]-6,6-dimethyl-1,4,5,6-tetrahydropyrrolo[3,4-c]pyrazol-3-yl}-1-(trimethylsilyl)cyclobutanecarboxamide], the Ki at CDK7 is not above 50 nM. The compound further registered an IC50 in experiment [1] not above 500 nM.

The values are drawn from patent publication US10131679B2, “Substituted dihydropyrrolopyrazole compound” (UBE INDUSTRIES, LTD., priority 2014, dated 2018).
